Data on 19 compounds can be found in patent US20070099983A1, “Aminocyclohexyl ether compounds and uses thereof” (Cardiome Pharma Corp., priority 2003, published 2007).

For data set [1], the system named is conscious rats. The experiment in a line: Determination of CNS toxicity: convulsions in conscious rats on increasing i.v. infusion. In kind it is in vivo. As to conditions: rat, in vivo; for convulsion dose: iv.
The subject of data set [2] is sustained AF maintained during continuous vagal nerve stimulation. Description: Canine vagal-AF model: termination of sustained AF. Format: in vivo, dog. The settings on record: IV, anesthetized dogs. How it is done:
St.-Georges et al., 1997). Dogs are ventilated mechanically with room air supplemented with oxygen via an endotracheal tube at 20 to 25 breaths/minute with a tidal volume obtained from a monogram. […] Catheters are inserted into the femoral artery for blood pressure recording and blood gas measurement, and into both femoral veins for drug administration and venous sampling. […] Body temperature is maintained at 37-40° C. with a heating blanket. The heart is exposed via a medial thoracotomy and a pericardial cradle is created. […] Drug effects to terminate sustained AF maintained during continuous vagal nerve stimulation are assessed. […] The vagal stimulation voltage is adjusted under control conditions, and then readjusted after each treatment to maintain the same bradycardic effect. […] Diastolic threshold and ERP are determined in duplicate and averaged to give a single value. […] The interval between the stimulus artefact and the peak of the local electrogram is measured as an index of conduction velocity. […] The stimulus voltage-heart rate relationship for vagal nerve stimulation is determined under control conditions in most experiments. […] After the termination of AF, the diastolic threshold and ERP of the atrium and ventricle are determined. […] Group data are expressed as the mean±SEM. […]

On to `c1ccc2cc(CCO[C@H]3CCCCC3N3CCOCC3)ccc2c1` (stereo partly drawn) [Compound 30, (1R,2R)/(1S,2S)-[2-(4-morpholinyl)-1-(2-naphthenethoxy)]-cyclohexane], for which, in data set [1], the cum conv dose stood at 85 µmol/kg and the convulsion dose stood at 13.3 µmol/kg/min.

On to `c1ccc2c(CCO[C@H]3CCCCC3N3CCOCC3)cccc2c1` (stereo partly drawn) [Compound 31, (1R,2R)/(1S,2S)-[2-(4-morpholinyl)-1-(1-naphthenethoxy)]-cyclohexane], for which, in data set [1], the cum conv dose worked out at 93 µmol/kg and the convulsion dose was determined as 16 µmol/kg/min. On the same counts, the results for `Brc1ccc(CCO[C@H]2CCCCC2N2CCOCC2)cc1` (stereo partly shown) [Compound 32] are 91 µmol/kg and 12 µmol/kg/min. In data set [1], `c1ccc2cc(OCCO[C@H]3CCCCC3N3CCOCC3)ccc2c1` (stereo partly drawn) [Compound 33, (1R,2R)/(1S,2S)-[2-(4-morpholinyl)-1-[2-(2-naphthoxy)ethoxy]]-cyclohexane] came in with a cum conv dose of 61.63 µmol/kg and a convulsion dose of 8 µmol/kg/min. With `Brc1ccc(OCCO[C@H]2CCCCC2N2CCOCC2)cc1` (stereo partly drawn) [Compound 34, (1R,2R)/(1S,2S)-[2-(4-morpholinyl)-1-[2-(4-bromophenoxy)-ethoxy]]cyclohexane], in data set [1], the cum conv dose came to 83 µmol/kg and the convulsion dose worked out at 10.7 µmol/kg/min. For `COc1ccc(CCO[C@H]2CCCCC2N2CCOCC2)cc1OC` (stereo partly drawn) [Compound 35, (1R,2R)/(1S,2S)-[2-(4-morpholinyl)-1-(3,4-dimethoxy-phenethoxy)]-cyclohexane] the same measures were 113 µmol/kg and 16 µmol/kg/min. In data set [1], `c1ccc2c(CCO[C@H]3CCCCC3N3CCOCC3)csc2c1` (stereo partly shown) [Compound 36] returned a cum conv dose of 65 µmol/kg and a convulsion dose of 8 µmol/kg/min. `c1cc(CCO[C@H]2CCCCC2N2CCOCC2)c2ccsc2c1` (stereo partly shown) [Compound 37]: in data set [1], the cum conv dose is 54 µmol/kg and the convulsion dose turned out to be 8 µmol/kg/min. As for `Brc1cccc(CCO[C@H]2CCCCC2N2CCOCC2)c1` (stereo partly drawn) [Compound 38, (1R,2R)/(1S,2S)-[2-(4-morpholinyl)-1-(3-bromophenethoxy)]-cyclohexane], in data set [1], the cum conv dose worked out at 131 µmol/kg and the convulsion dose was 16 µmol/kg/min. For `Brc1ccccc1CCO[C@H]1CCCCC1N1CCOCC1` (stereo partly drawn) [Compound 39, (1R,2R)/(1S,2S)-[2-(4-morpholinyl)-1-(2-bromophenethoxy)]-cyclohexane] the same measures were 125 µmol/kg and 16 µmol/kg/min. On the same counts, the results for `Clc1ccc(CCO[C@H]2CCCCC2N2CCOCC2)cc1Cl` (stereo partly drawn) [Compound 40, (1R,2R)/(1S,2S)-2-(4-morpholinyl)-1-(3,4-dichlorophenethoxy) cyclohexane] are 118 µmol/kg and 16 µmol/kg/min. On the same counts, the results for `Cl.O=C1CCN(C2CCCC[C@@H]2OCCc2c(Cl)cccc2Cl)C1` (stereo partly drawn) [Compound 41, (1R,2R)/(1S,2S)-2-(3-ketopyrrolidinyl)-1-(2,6-dichlorophenethoxy) cyclohexane monohydrochloride] are 190 µmol/kg and 32 µmol/kg/min. As for `CC(=O)OC1CCN([C@@H]2CCCCC2OCCc2cccc3ccccc23)C1.Cl` (stereo partly drawn) [Compound 43, (1R,2R)/(1S,2S)-2-(3-acetoxypyrrolidinyl)-1-(1-naphthenethoxy)cyclo hexane monohydrochloride], in data set [1], the cum conv dose was found to be 65 µmol/kg and the convulsion dose came to 8 µmol/kg/min.

In data set [1], `Cl.Clc1cccc(Cl)c1COC1CCCC[C@H]1N1CCOCC1` (stereo partly drawn) [Compound 44, (1R,2R)/(1S,2S)-2-(4-morpholinyl)-1-[(2,6-dichlorophenyl)methoxy]cyclohexane monohydrochloride] gave a cum conv dose of 97 µmol/kg and a convulsion dose of 16 µmol/kg/min. On the same counts, the results for `Cl.O=C1CCN([C@@H]2CCCCC2OCc2c(Cl)cccc2Cl)C1` (stereo partly drawn) [Compound 45, (1R,2R)/(1S,2S)-2-(3-ketopyrrolidinyl)-1-[(2,6-dichlorophenyl)methoxy]cyclohexane monohydrochloride] are 214 µmol/kg and 32 µmol/kg/min. `Cl.OC1CCN(C2CCCC[C@@H]2OCCc2c(Cl)cccc2Cl)C1` (stereo partly drawn) [Compound 46, (1R,2R)/(1S,2S)-2-(3-hydroxypyrrolidinyl)-1-(2,6-dichlorophenethoxy) cyclohexane monohydrochloride] showed a cum conv dose in data set [1] of 65 µmol/kg. Turning to `Cl.O=C1CCN(C2CCCC[C@@H]2OCC(c2ccccc2)c2ccccc2)C1` (stereo partly drawn) [Compound 47, (1R,2R)/(1S,2S)-2-(3-ketopyrrolidinyl)-1-(2,2-diphenylethoxy)cyclo hexane monohydrochloride], in data set [1], the cum conv dose came to 155 µmol/kg and the convulsion dose came to 21 µmol/kg/min. For `Cl.Clc1cccc(Cl)c1CCOC1CCCC[C@H]1N1CCSC1` (stereo partly drawn) [Compound 48, (1R,2R)/(1S,2S)-2-(3-thiazolidinyl)-1-(2,6-dichlorophenethoxy) cyclohexane monohydrochloride], in data set [1], the cum conv dose worked out at 331 µmol/kg and the convulsion dose came out at 43 µmol/kg/min. As to `O=C(NCC1CCCCN1)c1cc(OCC(F)(F)F)ccc1OCC(F)(F)F` (stereo not shown) [Flecainide], the “Median dose required for termination of AF” value in data set [2] was 2.5 µmol/kg. Moreover, the “Mean dose required for termination of AF” value in data set [2] (mean±EM) worked out at 4 ± 2 µmol/kg.
